Reference: a compilation of properties of binary mixtures (doi:10.1016/j.fluid.2015.05.023)

Test: xn = mol fraction of the nth substance listed
Details: 100 kPa

CCCCCCn1cc[n+](CCCCCC)c1.O=S(=O)([N-]S(=O)(=O)C(F)(F)F)C(F)(F)F + O
x2 = 0.1489
Details	viscosity [mPa·s]
298.15 K	83.49
308.15 K	52.59
313.15 K	42.72
318.15 K	35.17
323.15 K	29.31
333.15 K	21.02
338.15 K	18.06
343.15 K	15.65
348.15 K	13.67
353.15 K	12
358.15 K	10.63
363.15 K	9.466

CCCCn1cc[n+](CCCC)c1.O=S(=O)([N-]S(=O)(=O)C(F)(F)F)C(F)(F)F + O
x2 = 0.1843
Details	viscosity [mPa·s]
298.15 K	48.47
303.15 K	39.12
313.15 K	26.74
318.15 K	22.52
323.15 K	19.19
328.15 K	16.51
333.15 K	14.32
338.15 K	12.53
343.15 K	11.04
348.15 K	9.78
353.15 K	8.73

CCn1cc[n+](CC)c1.O=S(=O)([N-]S(=O)(=O)C(F)(F)F)C(F)(F)F + O
x2 = 0.2772
Details	viscosity [mPa·s]
298.15 K	19.32
303.15 K	16.55
308.15 K	14.34
313.15 K	12.53
323.15 K	9.8
328.15 K	8.75
333.15 K	7.87
338.15 K	7.11
343.15 K	6.46
348.15 K	5.89
353.15 K	5.39
363.15 K	4.57

CC[n+]1ccn(C)c1.O=S(=O)([N-]S(=O)(=O)C(F)(F)F)C(F)(F)F + O
x2 = 0.298
Details	viscosity [mPa·s]
298.15 K	18.97
308.15 K	14.06
318.15 K	10.83
323.15 K	9.63
328.15 K	8.615
338.15 K	7.02
343.15 K	6.382
348.15 K	5.832
353.15 K	5.35
358.15 K	4.926
363.15 K	4.549

CCCCCCCCn1cc[n+](CCCCCCCC)c1.O=S(=O)([N-]S(=O)(=O)C(F)(F)F)C(F)(F)F + O
x2 = 0.1246
Details	viscosity [mPa·s]
298.15 K	120.2
313.15 K	58.75
318.15 K	47.76
323.15 K	39.33
328.15 K	32.75
333.15 K	27.56
338.15 K	23.43
343.15 K	20.09
348.15 K	17.37
353.15 K	15.13
363.15 K	11.72

CCCn1cc[n+](C)c1.O=S(=O)([N-]S(=O)(=O)C(F)(F)F)C(F)(F)F + O
x2 = 0.272
Details	viscosity [mPa·s]
298.15 K	26.63
303.15 K	22.24
313.15 K	16.12
328.15 K	10.73
333.15 K	9.52
338.15 K	8.5
348.15 K	6.9
358.15 K	5.69
363.15 K	5.22

CCCCCCCn1cc[n+](CCCCCCC)c1.O=S(=O)([N-]S(=O)(=O)C(F)(F)F)C(F)(F)F + O
x2 = 0.1365
Details	viscosity [mPa·s]
298.15 K	100.8
303.15 K	78.57
308.15 K	62.48
313.15 K	50.44
318.15 K	41.29
323.15 K	34.22
328.15 K	28.65
333.15 K	24.25
338.15 K	20.67
343.15 K	17.8
348.15 K	15.46
353.15 K	13.51
358.15 K	11.9
363.15 K	10.53

CCCC[n+]1ccn(C)c1.O=S(=O)([N-]S(=O)(=O)C(F)(F)F)C(F)(F)F + O
x2 = 0.257
Details	viscosity [mPa·s]
298.15 K	31.31
303.15 K	25.93
308.15 K	21.78
313.15 K	18.52
318.15 K	15.92
323.15 K	13.82
328.15 K	12.1
338.15 K	9.475
348.15 K	7.629
358.15 K	6.275
363.15 K	5.73

CCCCCn1cc[n+](C)c1.O=S(=O)([N-]S(=O)(=O)C(F)(F)F)C(F)(F)F + O
x2 = 0.2211
Details	viscosity [mPa·s]
298.15 K	38.65
303.15 K	31.67
308.15 K	26.32
323.15 K	16.22
328.15 K	14.08
333.15 K	12.32
338.15 K	10.87
343.15 K	9.65
348.15 K	8.63
353.15 K	7.75
358.15 K	7
363.15 K	6.36

CCCCCCC[n+]1ccn(C)c1.O=S(=O)([N-]S(=O)(=O)C(F)(F)F)C(F)(F)F + O
x2 = 0.1971
Details	viscosity [mPa·s]
298.15 K	52.98
303.15 K	42.58
313.15 K	28.95
328.15 K	17.77
333.15 K	15.4
338.15 K	13.45
343.15 K	11.85
348.15 K	10.51
353.15 K	9.36
363.15 K	7.58

CCCCCn1cc[n+](CCCCC)c1.O=S(=O)([N-]S(=O)(=O)C(F)(F)F)C(F)(F)F + O
x2 = 0.1575
Details	viscosity [mPa·s]
298.15 K	66.87
303.15 K	53.1
308.15 K	42.91
318.15 K	29.21
323.15 K	24.56
328.15 K	20.86
333.15 K	17.88
343.15 K	13.46
348.15 K	11.83
353.15 K	10.46
363.15 K	8.34

CCCCCCCCCCCn1cc[n+](C)c1.O=S(=O)([N-]S(=O)(=O)C(F)(F)F)C(F)(F)F + O
x2 = 0.1567
Details	viscosity [mPa·s]
298.15 K	96.4
303.15 K	75.7
308.15 K	60.46
313.15 K	49.36
318.15 K	40.26
323.15 K	33.49
328.15 K	28.17
333.15 K	24.19
343.15 K	17.77
348.15 K	15.5
353.15 K	13.94
358.15 K	12.05
363.15 K	10.72

CCCn1cc[n+](CCC)c1.O=S(=O)([N-]S(=O)(=O)C(F)(F)F)C(F)(F)F + O
x2 = 0.2232
Details	viscosity [mPa·s]
298.15 K	35.66
308.15 K	24.31
318.15 K	17.47
323.15 K	15.05
328.15 K	13.09
338.15 K	10.15
343.15 K	9.03
353.15 K	7.29
358.15 K	6.6

Cn1cc[n+](C)c1.O=S(=O)([N-]S(=O)(=O)C(F)(F)F)C(F)(F)F + O
x2 = 0.3548
Details	viscosity [mPa·s]
298.15 K	18.59
303.15 K	15.87
308.15 K	13.73
313.15 K	11.99
318.15 K	10.57
323.15 K	9.39
328.15 K	8.39
333.15 K	7.55
338.15 K	6.84
343.15 K	6.22
348.15 K	5.69
353.15 K	5.23
358.15 K	4.82
363.15 K	4.46

CCCCCCCCCn1cc[n+](C)c1.O=S(=O)([N-]S(=O)(=O)C(F)(F)F)C(F)(F)F + O
x2 = 0.1736
Details	viscosity [mPa·s]
303.15 K	57.66
313.15 K	39.1
328.15 K	22.64
333.15 K	19.7
338.15 K	16.81
343.15 K	14.67
348.15 K	12.89
353.15 K	11.68
